Experimental findings from patent US8853452B2, “Compounds, their syntheses, compositions, and methods to treat cancer” (The Administrators of the Tulane Educational Fund, priority 2009, dated 2014) are described below.

For orientation: IC50 means the concentration that gives 50% inhibition.

Data set [1] relates to MCF-7TN-R cells. The experiment in a line: Viability assay using MTT. It is filed as cell-based. Particulars: Homo sapiens, 24 h, compounds 0.1 to 100 μM, unit inferred, read-out: MCF-7TN-R (IC50), Viability Assays. On the procedure: (§1) Human cancer cell lines derived from breast, MCF-7, endocrine-resistant MDA-MB-231, and chemoresistant MCF-7TN-R were cultured in 75 cm^2 culture flasks in DMEM (Invitrogen, Co.) supplemented with 10% FBS (Life Technologies, Inc., Gaithersburg, Md.), basic minimum MEM essential (50×, Invitrogen Co.) and MEM non-essential (100×, Invitrogen, Co.) amino acids, sodium pyruvate (100× Invitrogen Co.), antimicotic-antibiotic (10,000 U/mL penicillin G sodium; 10,000 μg/mL streptomycin sulphate; 25 μg/mL amphotericin B as Fungizone®), and human recombinant insulin (4 mg/mL Invitrogen Co). Culture flasks were maintained in a tissue culture incubator in a humidified atmosphere of 5% CO2 and 95% air at 37° C.
(§2) The effect of ceramide and compounds on cell growth was determined using MTT viability assays. MCF-7, MDA-MB-231, or MCF-7TN-R cells were plated at […] cells per well in a 96-well plate in phenol-free DMEM supplemented with 5% FBS and allowed to adhere overnight. Cells were then treated with compounds I-1, I-2, I-3, or I-4 (ranging from 0.1 to 100 μM) for 24 h. Following that treatment, 20 μL of MTT (5 mg/ml) reagent was added to each well prior to incubation for 4 hr. Cells were then lysed with 20% SDS in 50% dimethylformamide. The pH and absorbances were read on an EL×808 Microtek plate reader (Winooski, Vt.) at 550 nm, with a reference wavelength of 630 nm.
(§3) Statistical analysis of IC50 values were calculated from concentration-response curves using GraphPad Prism 5.0 (Graphpad Software, San Diego, Calif.), using with the equation: Y=Bottom+(Top−bottom)/1+10 Log EC50−X assuming a standard slope, where the response goes from 10% to 90% of maximal as X increases over two log units. Differences in IC50 were compared using Student's unpaired t-test with p<0.05 as the limit of statistical significance. Experiments comparing multiple concentrations to the control were tested with one-way ANOVA with Bonferroni post-test to compare individual concentrations. All statistical analysis were done using GraphPad Prism 5.0. […].

The test system of data set [2] is MDA-MB-231 cells. In words: Viability assay using MTT. It is filed as cell-based. Particulars: Homo sapiens, 24 h, compounds 0.1 to 100 μM, unit inferred, read-out: MDA-MB-231 (IC50), Viability Assays. How it is done: as §1, §2, §3
Data set [3] relates to MCF-7 cells. In words: Viability assay using MTT. The format is cell-based. The note with it: Homo sapiens, MCF7, 24 h, compounds 0.1 to 100 μM, unit inferred, read-out: MCF-7 (IC50), Viability Assays. How it is done:
as §1, §2, §3

Data set [4] concerns MCF-7TN-R cells. The experiment in a line: Clonogenic survival assay. Particulars: Homo sapiens, 240 h. The format is cell-based, Human. How it is done:
as §1
(§4) MCF-7, MDA-MB-231, or MCF-7TN-R cells were plated in 6-well plates at 1000 cells per well. Twenty-four hours later, cells were treated with varying concentrations of the compound and then monitored microscopically for colony growth. Ten days later the cells were fixed with 3% glutaraldehyde. Following fixation for 15 min, the plates were washed and stained with a 0.4% solution of crystal violet in 20% methanol for 30 min, washed with PBS, and air-dried. Colonies of 30 cells were counted as positive. Results are normalized to percent clonogenic survival from untreated control cells. Statistical analysis of IC50 values were calculated from concentration-response curves using GraphPad Prism 5.0 (Graphpad Software, San Diego, Calif.), using with the equation: Y=Bottom+(Top−bottom)/1+10 Log EC50−X.
(§5) Compounds II-1, II-2, II-3, II-4, II-5, and II-6 were compared for their inhibitory effect on breast cancer clonogenic survival. Cells were treated with varying concentration of compound, ranging from 0.1 μM-20 μM for 10 days. […] At endpoint, cell colonies were fixed, stained and recorded as percent vehicle control.

The subject of data set [5] is MDA-MB-231 cells. The experiment in a line: Clonogenic survival assay. The format is cell-based, Human. Particulars: Homo sapiens, MDA-MB-231, 240 h. On the procedure:
as §1, §4, §5

The test system of data set [6] is MCF-7 cells. In words: Clonogenic survival assay. The format is cell-based, Human. On the procedure:
as §1, §4, §5

The subject of data set [7] is MCF-7TN-R cells. In words: Proliferation assay. The format is cell-based. The note with it: Homo sapiens; Table 3; read-out: IC50 (μM), anti-proliferative in MCF-7TN-R cells. On the procedure:
The ability of compound II-3 to block proliferation as an anti-survival mechanism in addition to apoptosis was determined by measuring anti-proliferative effects.
Nineteen compounds were synthesized using fifteen benzaldehydes as starting material. […] These were tested as potential anti-proliferative agents in MCF-7TN-R cells, and the structure-activity relationships were studied using several parameters. […] In compounds containing a methyl group, a significant increase of the PAC (C) in o-substituted compound was detected, which may account for the increased anti-proliferation activity. Ortho-substituted analogs with electron withdrawing groups by induction can have beneficial effects, and PAC (C) can be a useful predictor of the structural property of the molecule.

Data set [8] in a line: Log K (structure-activity parameter). The format is physicochemical.
Setting [9] is: Table 1B, 10 days, read-out: MCF-7TN-R (IC50), Clonogenic Survival Assays.
The mark [10] stands for this setting: Table 1B, 10 days, read-out: MDA-MB-231 (IC50), Clonogenic Survival Assays.
Where [11] appears, read: Homo sapiens, MCF7, 240 h, Table 1B, 10 days, read-out: MCF-7 (IC50), Clonogenic Survival Assays.
[12] abbreviates: Table 2, 0.1 μM-20 μM for 10 days, read-out: MCF-7-TNR (IC50), clonogenic survival.
The mark [13] stands for this setting: Table 2, 0.1 μM-20 μM for 10 days, read-out: MDA-MB-231 (IC50), clonogenic survival.
Where [14] appears, read: Homo sapiens, MCF7, 240 h, Table 2, 0.1 μM-20 μM for 10 days, read-out: MCF-7 (IC50), clonogenic survival.

Molecules are shown by their SMILES.

`CCCCCCCCCCCCC/C=C/[C@@H](O)[C@H](CO)NC(=O)C1CCCCC1` [Compound I-1, N-((2S,3R,E)-1,3-dihydroxyoctadec-4-en-2-yl)cyclohexanecarboxamide]: the IC50 in the data set with MCF-7TN-R cells [1] turned out to be 2400 nM; in the data set with MDA-MB-231 cells [2], 5.4 µM; in the data set on MCF-7 cells [3], 22.6 µM; in the data set with MCF-7TN-R cells [4] (setting [9]), 0.7 µM; in the data set on MDA-MB-231 cells [5] (setting [10]) it was 1.6 µM; in the data set on MCF-7 cells [6] (setting [11]) it was 1.5 µM.
On to `CCCCCCCCCCCCC/C=C/[C@@H](O)[C@H](CO)NCc1ccccc1` [Compound I-2, (2S,3R,E)-2-(benzylamino)octadec-4-ene-1,3-diol], for which the IC50 was determined as 3000 nM with MCF-7TN-R cells [1]; 3.7 µM in the data set on MDA-MB-231 cells [2]; 6.3 µM with MCF-7 cells [3]; 0.6 µM in the data set on MCF-7TN-R cells [4] (setting [9]); 1.1 µM in the data set on MDA-MB-231 cells [5] (setting [10]); 1.5 µM with MCF-7 cells [6] (setting [11]).
Take `CCCCCCCCCCCCCCNC(=O)[C@H](CO)NC(=O)C1CCCCC1` [II-1, (S)—N-(3-hydroxy-1-oxo-1-(tetradecylamino)propan-2-yl)cyclohexanecarboxamide]: the results for the IC50 in the data set with MCF-7TN-R cells [4] (setting [12]), in the data set on MDA-MB-231 cells [5] (setting [13]) and in the data set on MCF-7 cells [6] (setting [14]) were 23.5 µM, 11.5 µM and 7.2 µM, respectively.
In the case of `CCCCCCCCCCCCCCNC(=O)[C@H](CO)NCc1ccccc1` [II-2, (S)-2-(benzylamino)-3-hydroxy-N-tetradecylpropanamide], the IC50 amounted to 15.2 µM with MCF-7TN-R cells [4] (setting [12]); 10.5 µM in the data set with MDA-MB-231 cells [5] (setting [13]); 4.97 µM with MCF-7 cells [6] (setting [14]); 5 µM with MCF-7 cells [6] (Table 2, 0.1 μM-20 μM for 10 days, read-out: MCF-7 (IC50), clonogenic survival).
`CCCCCCCCCCCCCCNC(=O)[C@H](CO)NC(=O)C(C)(C)C` [II-4, (S)-3-hydroxy-2-pivalamido-N-tetradecylpropanamide]: the figures for the IC50 with MCF-7TN-R cells [4] (setting [12]), in the data set with MDA-MB-231 cells [5] (setting [13]) and with MCF-7 cells [6] (setting [14]) were 11.1 µM, 6.1 µM and 6.7 µM, respectively.
The matching figures for `CCCCCCCCCCCCCCNC(=O)[C@H](CO)NC(=O)c1cc(OC)cc(OC)c1` [II-5, (S)—N-(3-hydroxy-1-oxo-1-(tetradecylamino)propan-2-yl)-3,5-dimethoxybenzamide]: 15 µM, 6.6 µM and 11.2 µM.
The like results for `CCCCCCCCCCCCCCNC(=O)[C@H](CO)NC(C)=O` [II-6, (S)-2-acetamido-3-hydroxy-N-tetradecylpropanamide] were, in that order, 52.7 µM, 75.1 µM and 44.7 µM.
Consider `CCCCCCCCCCCCCCNC(=O)[C@H](CO)N=Cc1ccc([N+](=O)[O-])cc1` [II-7, (S)-2-(4-nitrobenzylideneamino)-3-hydroxy-N-tetradecylpropanamide], for which, in the data set on MCF-7TN-R cells [7], the IC50 turned out to be 216 µM. Moreover, the “Log K” value in data set [8] is listed as 0.86.
In the case of `CCCCCCCCCCCCCCNC(=O)[C@H](CO)N=Cc1cccc([N+](=O)[O-])c1` [II-8, (S)-2-(3-nitrobenzylideneamino)-3-hydroxy-N-tetradecylpropanamide], the IC50 in the data set with MCF-7TN-R cells [7] was 104 µM. Further, in data set [8], the “Log K” value was determined as 0.86.
As for `CCCCCCCCCCCCCCNC(=O)[C@H](CO)N=Cc1ccccc1[N+](=O)[O-]` [II-9, (S)-2-(2-nitrobenzylideneamino)-3-hydroxy-N-tetradecylpropanamide], the IC50 in the data set on MCF-7TN-R cells [7] was determined as 21.7 µM. In data set [8], the “Log K” value came out at 0.88.
Turning to `CCCCCCCCCCCCCCNC(=O)[C@H](CO)N=Cc1ccc(C)cc1` [II-10, (S)-2-(4-methylbenzylideneamino)-3-hydroxy-N-tetradecylpropanamide], the IC50 with MCF-7TN-R cells [7] is 102 µM. In addition, the “Log K” value in data set [8] was determined as 1.09.
Take `CCCCCCCCCCCCCCNC(=O)[C@H](CO)N=Cc1cccc(C)c1` [II-11, (S)-2-(3-methylbenzylideneamino)-3-hydroxy-N-tetradecylpropanamide]: the IC50 in the data set on MCF-7TN-R cells [7] was found to be 82.9 µM. Further, the “Log K” value in data set [8] was 1.09.
`CCCCCCCCCCCCCCNC(=O)[C@H](CO)N=Cc1ccccc1C` [II-12, (S)-2-(2-methylbenzylideneamino)-3-hydroxy-N-tetradecylpropanamide]: the IC50 in the data set on MCF-7TN-R cells [7] is 87.7 µM. Also, the “Log K” value in data set [8] amounted to 1.09.
With `CCCCCCCCCCCCCCNC(=O)[C@H](CO)N=Cc1ccc(Cl)cc1` [II-13, (S)-2-(4-chlorobenzylideneamino)-3-hydroxy-N-tetradecylpropanamide], the IC50 with MCF-7TN-R cells [7] stood at 27.5 µM. In addition, the “Log K” value in data set [8] stood at 1.09.
The matching figures for `CCCCCCCCCCCCCCNC(=O)[C@H](CO)N=Cc1cccc(Cl)c1` [II-14, (S)-2-(3-chlorobenzylideneamino)-3-hydroxy-N-tetradecylpropanamide]: 24.1 µM and 1.08.
The matching figures for `CCCCCCCCCCCCCCNC(=O)[C@H](CO)N=Cc1ccccc1Cl` [II-15, (S)-2-(2-chlorobenzylideneamino)-3-hydroxy-N-tetradecylpropanamide]: 10.3 µM and 1.12.
The matching figures for `CCCCCCCCCCCCCCNC(=O)[C@H](CO)N=Cc1ccc(OC)cc1` [II-16, (S)-2-(4-methoxybenzylideneamino)-3-hydroxy-N-tetradecylpropanamide]: 28.1 µM and 0.91.
With `CCCCCCCCCCCCCCNC(=O)[C@H](CO)N=Cc1cccc(OC)c1` [II-17, (S)-2-(3-methoxybenzylideneamino)-3-hydroxy-N-tetradecylpropanamide], the IC50 in the data set on MCF-7TN-R cells [7] amounted to 31.2 µM. For the same compound, the “Log K” value in data set [8] is listed as 0.92.
For `CCCCCCCCCCCCCCNC(=O)[C@H](CO)N=Cc1ccccc1OC` [II-18, (S)-2-(2-methoxybenzylideneamino)-3-hydroxy-N-tetradecylpropanamide], the IC50 with MCF-7TN-R cells [7] is 12.5 µM. In data set [8], the “Log K” value turned out to be 0.89.
Take `CCCCCCCCCCCCCCNC(=O)[C@H](CO)N=Cc1ccc(O)cc1` [II-19, (S)-2-(4-hydroxybenzylideneamino)-3-hydroxy-N-tetradecylpropanamide]: the IC50 in the data set with MCF-7TN-R cells [7] came out at 19.3 µM. In data set [8], the “Log K” value is 0.73.
The like results for `CCCCCCCCCCCCCCNC(=O)[C@H](CO)N=Cc1cccc(O)c1` [II-20, (S)-2-(3-hydroxybenzylideneamino)-3-hydroxy-N-tetradecylpropanamide] were, in that order, 32.6 µM and 0.76.
As for `CCCCCCCCCCCCCCNC(=O)[C@H](CO)N=Cc1ccccc1O` [II-21, (S)-2-(2-hydroxybenzylideneamino)-3-hydroxy-N-tetradecylpropanamide], in the data set with MCF-7TN-R cells [7], the IC50 was 19 µM. Further, the “Log K” value in data set [8] was 0.89.
